Test results published in patent publication US12187816B2, “Macrocyclic compounds and methods of use thereof” (Genentech, Inc., priority 2020, dated 2025).
Starred links: 1 amine or outer side, 2 acyl side, 3 side chain; linkers in the order of their positions; H or OH if unused. Non-standard residues stand in square brackets, D forms with d. Residues, ends and D or L forms follow the SMILES beside them. *: point of attachment. JQ1acid = Cc1sc2c(c1C)C(c1ccc(Cl)cc1)=N[C@@H](CC(=O)*)c1nnc(C)n1-2; X1 = CC(C)(C)[C@@H](C(=O)[*:2])n1cc(COCCN[*:1])nn1; X13 = Cc1ncsc1-c1ccc(C[C@@H](N[*:1])C(=O)[*:2])cc1; X9 = O=C(C[C@@H](Cc1ccc(-c2ccccc2)cc1)N[*:1])[*:2]; dBip = N[C@H](Cc1ccc(-c2ccccc2)cc1)C(=O)O; dLys(N3) = [N-]=[N+]=NCCCC[C@@H](N)C(=O)O; Ile(3-Me) = CCC(C)(C)[C@H](N)C(=O)O; Hyp = O=C(O)[C@@H]1C[C@@H](O)CN1; Tle = CC(C)(C)[C@H](N)C(=O)O; X8 = CN(CCOCC(=O)[*:2])[*:1]; dDap = NC[C@@H](N)C(=O)O; Ahp = NCCCCCCC(=O)O; Ahx = NCCCCCC(=O)O; AEA = NCCOCC(=O)O; GABA = NCCCC(=O)O; βAla = NCCC(=O)O

Molecular target: T1, BRD4 (Homo sapiens, UniProt O60885)
T1 construct: Mean 488 intensity of BRD4 quantitated in nuclear region; endogenous in cells; host or cells: EoL-1 eosinophilic leukemia cells
Assay: BRD4 degradation assay in EOL1 cells (immunofluorescence imaging)
Format: cell-based
Conditions: EoL-1 eosinophilic leukemia cells, 4 hours treatment, nuclear BRD4 immunofluorescence
How it was run: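 EoL-1 cells treated 4 h at 37 °C with 20-point 1/3 serial dilutions (0.2% DMSO) in RPMI/10% FBS, then fixed and immunostained for BRD4. Mean nuclear BRD4 intensity measured by high-content imaging, with Hoechst nuclear masking. DMSO and no-primary-antibody controls define 0 and 100%; DC50 and maximal effect from dose-response fit.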

Row | Structure (SMILES) | DC50 [nM]
1 | CCC(C)(C)[C@@H]1NC(=O)COCCNC(=O)[C@@H](CNC(=O)C[C@@H]2N=C(c3ccc(Cl)cc3)c3c(sc(C)c3C)-n3c(C)nnc32)NC(=O)[C@@H](C)NC(=O)[C@@H](Cc2ccc(-c3ccccc3)cc2)NC(=O)[C@@H]2C[C@@H](O)CN2C1=O [Compound 57] (cyclo([AEA][Ile(3-Me)][Hyp][dBip][dA][dDap](JQ1acid))) | < 50
2 | Cc1sc2c(c1C)C(c1ccc(Cl)cc1)=N[C@@H](CC(=O)NC[C@H]1NC(=O)[C@@H](C)NC(=O)[C@@H](Cc3ccc(-c4ccccc4)cc3)NC(=O)[C@@H]3C[C@@H](O)CN3C(=O)[C@H](C(C)(C)C)NC(=O)COCCNC1=O)c1nnc(C)n1-2 [Compound 58] (cyclo([AEA][Tle][Hyp][dBip][dA][dDap](JQ1acid))) | < 50
3 | Cc1sc2c(c1C)C(c1ccc(Cl)cc1)=N[C@@H](CC(=O)NC[C@H]1NC(=O)[C@@H](C)NC(=O)[C@@H](Cc3ccc(-c4ccccc4)cc3)NC(=O)[C@@H]3C[C@@H](O)CN3C(=O)[C@H](C(C)(C)C)NC(=O)CCCNC1=O)c1nnc(C)n1-2 [Compound 59] (cyclo([GABA][Tle][Hyp][dBip][dA][dDap](JQ1acid))) | < 1000
4 | Cc1sc2c(c1C)C(c1ccc(Cl)cc1)=N[C@@H](CC(=O)NC[C@H]1NC(=O)[C@@H](C)NC(=O)[C@@H](Cc3ccc(-c4ccccc4)cc3)NC(=O)[C@@H]3C[C@@H](O)CN3C(=O)[C@H](C(C)(C)C)NC(=O)CCCCCNC1=O)c1nnc(C)n1-2 [Compound 60] (cyclo([Ahx][Tle][Hyp][dBip][dA][dDap](JQ1acid))) | < 50
5 | Cc1sc2c(c1C)C(c1ccc(Cl)cc1)=N[C@@H](CC(=O)NC[C@H]1NC(=O)[C@@H](C)NC(=O)[C@@H](Cc3ccc(-c4ccccc4)cc3)NC(=O)[C@@H]3C[C@@H](O)CN3C(=O)[C@H](C(C)(C)C)NC(=O)CCCCCCNC1=O)c1nnc(C)n1-2 [Compound 61] (cyclo([Ahp][Tle][Hyp][dBip][dA][dDap](JQ1acid))) | < 50
6 | Cc1sc2c(c1C)C(c1ccc(Cl)cc1)=N[C@@H](CC(=O)NC[C@H]1NC(=O)CCNC(=O)[C@@H](Cc3ccc(-c4ccccc4)cc3)NC(=O)[C@@H]3C[C@@H](O)CN3C(=O)[C@H](C(C)(C)C)NC(=O)COCCNC1=O)c1nnc(C)n1-2 [Compound 62] (cyclo([AEA][Tle][Hyp][dBip][βAla][dDap](JQ1acid))) | < 1000
7 | Cc1sc2c(c1C)C(c1ccc(Cl)cc1)=N[C@@H](CC(=O)NC[C@H]1NC(=O)[C@@H](C)NC(=O)[C@@H](Cc3ccc(-c4ccccc4)cc3)NC(=O)[C@@H]3C[C@@H](O)CN3C(=O)[C@H](C(C)(C)C)NC(=O)COCCN(C)C1=O)c1nnc(C)n1-2 [Compound 63] (cyclo([Hyp][dBip][dA][dDap](JQ1acid)[X8][Tle])) | < 50
8 | Cc1sc2c(c1C)C(c1ccc(Cl)cc1)=N[C@@H](CC(=O)NC[C@H]1NC(=O)CNC(=O)C[C@@H](Cc3ccc(-c4ccccc4)cc3)NC(=O)[C@@H]3C[C@@H](O)CN3C(=O)[C@H](C(C)(C)C)NC(=O)COCCNC1=O)c1nnc(C)n1-2 [Compound 64] (cyclo([AEA][Tle][Hyp][X9]G[dDap](JQ1acid))) | > 20000
9 | Cc1sc2c(c1C)C(c1ccc(Cl)cc1)=N[C@@H](CC(=O)NC[C@H]1NC(=O)[C@@H](C)NC(=O)C[C@@H](Cc3ccc(-c4ccccc4)cc3)NC(=O)[C@@H]3C[C@@H](O)CN3C(=O)[C@H](C(C)(C)C)NC(=O)COCCNC1=O)c1nnc(C)n1-2 [Compound 65] (cyclo([AEA][Tle][Hyp][X9][dA][dDap](JQ1acid))) | > 20000
10 | Cc1sc2c(c1C)C(c1ccc(Cl)cc1)=N[C@@H](CC(=O)NC[C@H]1NC(=O)[C@@H](CCC(N)=O)NC(=O)[C@@H](Cc3ccc(-c4ccccc4)cc3)NC(=O)[C@@H]3C[C@@H](O)CN3C(=O)[C@H](C(C)(C)C)NC(=O)COCCNC1=O)c1nnc(C)n1-2 [Compound 66] (cyclo([AEA][Tle][Hyp][dBip][dQ][dDap](JQ1acid))) | < 1000
11 | Cc1sc2c(c1C)C(c1ccc(Cl)cc1)=N[C@@H](CC(=O)NC[C@H]1CCCNC(=O)[C@@H](Cc3ccc(-c4ccccc4)cc3)NC(=O)[C@@H]3C[C@@H](O)CN3C(=O)[C@H](C(C)(C)C)NC(=O)COCCNC1=O)c1nnc(C)n1-2 [Compound 67] | < 50
12 | Cc1ncsc1-c1ccc([C@H]2NC(=O)[C@@H]3C[C@@H](O)CN3C(=O)[C@H](C(C)(C)C)NC(=O)CSC[C@H](C(N)=O)NC(=O)[C@@H](NC(=O)C[C@@H]3N=C(c4ccc(Cl)cc4)c4c(sc(C)c4C)-n4c(C)nnc43)NC(=O)CNC2=O)cc1 [Compound 68] | > 20000
13 | Cc1ncsc1-c1ccc([C@H]2NC(=O)[C@@H]3C[C@@H](O)CN3C(=O)[C@H](C(C)(C)C)NC(=O)CSC[C@H](C(N)=O)NC(=O)[C@H](NC(=O)C[C@@H]3N=C(c4ccc(Cl)cc4)c4c(sc(C)c4C)-n4c(C)nnc43)NC(=O)CNC2=O)cc1 [Compound 69] | > 20000
14 | Cc1ncsc1-c1ccc(C[C@H]2NC(=O)[C@@H]3C[C@@H](O)CN3C(=O)[C@H](C(C)(C)C)NC(=O)COCCNC(=O)[C@@H](CNC(=O)C[C@@H]3N=C(c4ccc(Cl)cc4)c4c(sc(C)c4C)-n4c(C)nnc43)NC(=O)[C@@H](C)NC2=O)cc1 [Compound 70] (cyclo([AEA][Tle][Hyp][X13][dA][dDap](JQ1acid))) | < 50
15 | Cc1sc2c(c1C)C(c1ccc(Cl)cc1)=N[C@@H](CC(=O)NC[C@H]1NC(=O)[C@@H](CCCCN=[N+]=[N-])NC(=O)[C@@H](Cc3ccc(-c4ccccc4)cc3)NC(=O)[C@@H]3C[C@@H](O)CN3C(=O)[C@H](C(C)(C)C)NC(=O)COCCNC1=O)c1nnc(C)n1-2 [Compound 71] (cyclo([AEA][Tle][Hyp][dBip][dLys(N3)][dDap](JQ1acid))) | < 1000
16 | Cc1sc2c(c1C)C(c1ccc(Cl)cc1)=N[C@@H](CC(=O)NC[C@H]1NC(=O)[C@@H](CCCCN)NC(=O)[C@@H](Cc3ccc(-c4ccccc4)cc3)NC(=O)[C@@H]3C[C@@H](O)CN3C(=O)[C@H](C(C)(C)C)NC(=O)COCCNC1=O)c1nnc(C)n1-2 [Compound 72] (cyclo([AEA][Tle][Hyp][dBip][dK][dDap](JQ1acid))) | < 1000
17 | Cc1sc2c(c1C)C(c1ccc(Cl)cc1)=N[C@@H](CC(=O)NC[C@H]1NC(=O)CNC(=O)[C@@H](Cc3ccc(-c4ccccc4)cc3)NC(=O)[C@@H]3C[C@@H](O)CN3C(=O)[C@H](C(C)(C)C)n3cc(nn3)COCCNC1=O)c1nnc(C)n1-2 [Compound 200] | < 50
18 | Cc1sc2c(c1C)C(c1ccc(Cl)cc1)=N[C@@H](CC(=O)NC[C@H]1NC(=O)[C@@H](C)NC(=O)[C@@H](Cc3ccc(-c4ccccc4)cc3)NC(=O)[C@@H]3C[C@@H](O)CN3C(=O)[C@H](C(C)(C)C)n3cc(nn3)COCCNC1=O)c1nnc(C)n1-2 [Compound 201] | < 50
19 | Cc1sc2c(c1C)C(c1ccc(Cl)cc1)=N[C@@H](CC(=O)NC[C@H]1NC(=O)[C@@H](C(C)C)NC(=O)[C@@H](Cc3ccc(-c4ccccc4)cc3)NC(=O)[C@@H]3C[C@@H](O)CN3C(=O)[C@H](C(C)(C)C)n3cc(nn3)COCCNC1=O)c1nnc(C)n1-2 [Compound 202] (cyclo([Hyp][dBip][dV][dDap](JQ1acid)[X1])) | < 50
20 | Cc1sc2c(c1C)C(c1ccc(Cl)cc1)=N[C@@H](CC(=O)N(C)C[C@H]1NC(=O)CNC(=O)[C@@H](Cc3ccc(-c4ccccc4)cc3)NC(=O)[C@@H]3C[C@@H](O)CN3C(=O)[C@H](C(C)(C)C)n3cc(nn3)COCCNC1=O)c1nnc(C)n1-2 [Compound 203] | < 1000
21 | Cc1sc2c(c1C)C(c1ccc(Cl)cc1)=N[C@@H](CC(=O)N(C)C[C@H]1NC(=O)CNC(=O)[C@@H](Cc3ccc(-c4ccccc4)cc3)NC(=O)[C@@H]3C[C@@H](O)CN3C(=O)[C@H](C(C)(C)C)n3cc(nn3)COCCN(C)C1=O)c1nnc(C)n1-2 [Compound 204] | > 20000
22 | Cc1sc2c(c1C)C(c1ccc(Cl)cc1)=N[C@@H](CC(=O)NC[C@H]1NC(=O)CNC(=O)[C@@H](Cc3ccc(-c4ccccc4)cc3)NC(=O)[C@@H]3C[C@@H](O)CN3C(=O)[C@H](C(C)(C)C)n3cc(nn3)COCCN(C)C1=O)c1nnc(C)n1-2 [Compound 205] | < 50
23 | Cc1sc2c(c1C)C(c1ccc(Cl)cc1)=N[C@@H](CC(=O)NC[C@H]1CCCNC(=O)[C@@H](Cc3ccc(-c4ccccc4)cc3)NC(=O)[C@@H]3C[C@@H](O)CN3C(=O)[C@H](C(C)(C)C)n3cc(nn3)COCCNC1=O)c1nnc(C)n1-2 [Compound 206] | < 50
24 | Cc1sc2c(c1C)C(c1ccc(Cl)cc1)=N[C@@H](CC(=O)NC[C@H]1CCCNC(=O)[C@@H](Cc3ccc(-c4ccccc4)cc3)NC(=O)[C@@H]3C[C@@H](O)CN3C(=O)[C@H](C(C)(C)C)n3cc(nn3)C3(CC3)CNC1=O)c1nnc(C)n1-2 [Compound 207] | < 50
25 | Cc1sc2c(c1C)C(c1ccc(Cl)cc1)=N[C@@H](CC(=O)NC[C@H]1CCCNC(=O)[C@@H](Cc3ccc(-c4ccccc4)cc3)NC(=O)[C@@H]3C[C@@H](O)CN3C(=O)[C@H](C(C)(C)C)n3cc(nn3)C3(CC3)CNC(=O)CNC1=O)c1nnc(C)n1-2 [Compound 208] | < 1000
